Ten molecules from ChEMBL document CHEMBL1201862, “PubChem BioAssay data set” (2004) can be followed below.

Test systems include NCI/ADR-RES; HL-60; HCT-15; IGROV-1; OVCAR-3; HCC 2998; COLO 205; DU-145; 786-0; SF-295; EKVX; HOP-92; SF-268; MDA-MB-435; A549; UACC-257; MDA-N; U-251; NCI-H226; LOX IMVI.
Holding throughout (test): NCI-60 cell line screen, 48 h

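Values below derive from 48-hour exposures of cells grown in 96-well plates, with endpoints linearly interpolated between the two concentrations bracketing the appropriate inhibition level. At the GI50, growth is halved.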 The source made the active and inactive calls. Rule as the data show it: active = GI50 up to about 1.1 µM and inactive = higher.

Turning to `C=CCOc1ccc2c(C)cc(=O)oc2c1C`, the GI50 was 46.8 µM (inactive) with NCI/ADR-RES; 32.4 µM (inactive) with HL-60; 42.8 µM with HCT-15; 63 µM (inactive) with IGROV-1; > 100 µM (inactive) in the experiment on OVCAR-3; 33 µM (inactive) in the experiment on HCC 2998. Moreover, the GI50 was 44.3 µM (inactive) in the experiment on COLO 205; > 100 µM (inactive) in the experiment on DU-145; 84.9 µM (inactive) in the experiment on 786-0; 23.3 µM (inactive) in the experiment with SF-295; 27.4 µM (inactive) in the experiment with EKVX; 54.3 µM (inactive) with HOP-92. Also, the GI50 with SF-268 was 55.3 µM (inactive); in the experiment on MDA-MB-435, 44.2 µM (inactive); with A549, 50.7 µM (inactive); in the experiment with UACC-257, > 100 µM (inactive); with MDA-N it was 42 µM (inactive); with U-251, 54.2 µM (inactive). The results for the GI50 in the experiment with NCI-H226 and in the experiment with LOX IMVI were > 100 µM (inactive) and 43.8 µM (inactive), respectively.

As for `COc1ccc(C(=O)c2ccc(-n3cc(/C=C/[N+](=O)[O-])c4ccccc43)cc2)cc1`, the GI50 is 24.3 µM (inactive) with NCI/ADR-RES; 13.7 µM (inactive) in the experiment with HL-60; 7 µM in the experiment on HCT-15; 10.8 µM (inactive) with IGROV-1; 13.6 µM (inactive) with OVCAR-3; 20.9 µM (inactive) in the experiment on HCC 2998. In addition, the GI50 is 32.3 µM (inactive) in the experiment on COLO 205; 21.5 µM (inactive) in the experiment on DU-145; 3.52 µM (inactive) in the experiment with 786-0; 47.9 µM (inactive) with SF-295; 23.6 µM (inactive) in the experiment with EKVX; 17.9 µM (inactive) with HOP-92. In addition, the GI50 in the experiment on SF-268 is 18 µM (inactive); with MDA-MB-435, 16.2 µM (inactive); with A549, 80.4 µM (inactive); in the experiment with UACC-257, 10.2 µM (inactive); in the experiment on MDA-N, 22.8 µM (inactive); in the experiment with U-251, 11.3 µM (inactive). Moreover, the values for the GI50 in the experiment on NCI-H226 and with LOX IMVI were > 51.5 µM (inactive) and 6.55 µM (inactive), respectively.

Turning to `O=C(O)C1(Cc2ccc3c(c2)CCC3)Cc2ccccc2C1=O` (stereo not given), the GI50 in the experiment with NCI/ADR-RES is 58.1 µM (inactive); with HL-60, 43.5 µM (inactive); in the experiment with HCT-15, 34.8 µM; with IGROV-1 it was 57.8 µM (inactive); with OVCAR-3 it was 54 µM (inactive); in the experiment with HCC 2998, 43.5 µM (inactive). Also, the GI50 with COLO 205 is 52.6 µM (inactive); in the experiment on DU-145 it was 75.3 µM (inactive); in the experiment on 786-0, > 100 µM (inactive); in the experiment on SF-295 it was 33.6 µM (inactive); with EKVX it was 63.2 µM (inactive); in the experiment with HOP-92 it was 20.8 µM (inactive). Further, the GI50 with SF-268 was 63.8 µM (inactive); in the experiment on MDA-MB-435, > 100 µM (inactive); in the experiment with A549, 42.3 µM (inactive); with UACC-257 it was > 100 µM (inactive); in the experiment on MDA-N, > 100 µM (inactive); in the experiment on U-251, 38.4 µM (inactive). The figures for the GI50 in the experiment on NCI-H226 and in the experiment on LOX IMVI were 91.4 µM (inactive) and 78 µM (inactive), respectively.

Consider `CC(=O)c1sc2c(c1OC(=O)c1cccs1)c(=O)n(-c1ccccc1)c(=S)n2-c1ccccc1`, for which the GI50 in the experiment on NCI/ADR-RES is 15.2 µM (inactive); with HL-60, 26 µM (inactive); in the experiment on HCT-15, 17.5 µM; in the experiment on IGROV-1, 18.6 µM (inactive); with OVCAR-3, 23 µM (inactive); with HCC 2998 it was 39.4 µM (inactive). Also, the GI50 in the experiment on COLO 205 was 18 µM (inactive); in the experiment with DU-145 it was 26.8 µM (inactive); in the experiment with 786-0 it was 4.75 µM (inactive); with SF-295 it was 2.62 µM (inactive); in the experiment on EKVX it was 25.1 µM (inactive); with HOP-92 it was 5.24 µM (inactive). For the same molecule, the GI50 in the experiment with SF-268 was 6.07 µM (inactive); with MDA-MB-435, 8.24 µM (inactive); with A549 it was 62.5 µM (inactive); in the experiment on UACC-257, 11.7 µM (inactive); in the experiment on MDA-N, 5.5 µM (inactive); in the experiment on U-251 it was 5.86 µM (inactive). For the same molecule, the figures for the GI50 in the experiment on NCI-H226 and with LOX IMVI were 3.08 µM (inactive) and 4.84 µM (inactive), respectively.

Consider `Cc1ccc(Cc2n[nH]c(=O)n2/N=C\CC/C=N\n2c(Cc3ccc(C)cc3)n[nH]c2=O)cc1`, for which the GI50 is 21.1 µM (inactive) with NCI/ADR-RES; 14.6 µM (inactive) with HL-60; 26 µM in the experiment on HCT-15; 33.3 µM (inactive) in the experiment with IGROV-1; > 100 µM (inactive) in the experiment with OVCAR-3; > 100 µM (inactive) in the experiment on HCC 2998. The GI50 with COLO 205 is > 100 µM (inactive); in the experiment on DU-145 it was > 100 µM (inactive); in the experiment with 786-0, 18.5 µM (inactive); in the experiment with SF-295, 29.9 µM (inactive); with EKVX, 33.7 µM (inactive); with HOP-92 it was 25.1 µM (inactive). Further, the GI50 with SF-268 is 18 µM (inactive); with MDA-MB-435 it was 36.3 µM (inactive); in the experiment on A549, > 100 µM (inactive); with UACC-257, 57.4 µM (inactive); in the experiment with MDA-N, 37.1 µM (inactive); in the experiment on U-251, 19.2 µM (inactive). For the same molecule, the GI50 is 24.4 µM (inactive) in the experiment on NCI-H226 and 16.9 µM (inactive) in the experiment with LOX IMVI.

On to `COc1cc(N(CCC#N)CCC#N)ccc1C(/N=N/c1cccc(C)c1)=N\NC(=O)c1ccc(C)cc1`, for which the GI50 in the experiment on NCI/ADR-RES is > 100 µM (inactive); in the experiment on HL-60, 47.3 µM (inactive); in the experiment on HCT-15, above 100 µM; in the experiment with IGROV-1 it was > 100 µM (inactive); with OVCAR-3, > 100 µM (inactive); with HCC 2998, 79.3 µM (inactive). The GI50 with COLO 205 was 60 µM (inactive); in the experiment on DU-145 it was > 100 µM (inactive); in the experiment on 786-0 it was > 100 µM (inactive); with SF-295, > 100 µM (inactive); with EKVX it was 87.7 µM (inactive); with HOP-92, 65.9 µM (inactive). Moreover, the GI50 was 35.5 µM (inactive) in the experiment with SF-268; > 100 µM (inactive) with MDA-MB-435; > 100 µM (inactive) in the experiment with A549; > 100 µM (inactive) with UACC-257; > 100 µM (inactive) in the experiment on MDA-N; 45.8 µM (inactive) in the experiment on U-251. Further, the GI50 in the experiment on NCI-H226 and in the experiment with LOX IMVI was > 100 µM (inactive) each time.

Turning to `CN(C)C(=S)SCC(=O)Nc1ccccc1`, the GI50 in the experiment on NCI/ADR-RES was > 100 µM (inactive); with HL-60 it was > 100 µM (inactive); with HCT-15, above 100 µM; in the experiment with IGROV-1, > 100 µM (inactive); in the experiment on OVCAR-3, > 100 µM (inactive); in the experiment on HCC 2998, > 100 µM (inactive). The GI50 in the experiment with COLO 205, in the experiment with DU-145, in the experiment with 786-0, in the experiment on SF-295, with EKVX and with HOP-92 was > 100 µM (inactive) in each case. Besides, the GI50 with SF-268, with MDA-MB-435, in the experiment with A549, in the experiment on UACC-257, in the experiment with MDA-N and with U-251 was > 100 µM (inactive) in each case. In addition, the GI50 in the experiment on NCI-H226 and with LOX IMVI was > 100 µM (inactive) throughout.

For `O=C(/C=C\Nc1ccccc1O)C(F)(F)F`, the GI50 in the experiment on NCI/ADR-RES is > 100 µM (inactive); in the experiment with HL-60, 16.6 µM (inactive); with HCT-15, 40.8 µM; with IGROV-1, 78.9 µM (inactive); in the experiment on OVCAR-3 it was 19.5 µM (inactive); with HCC 2998 it was > 100 µM (inactive). The GI50 in the experiment with COLO 205 is 13.9 µM (inactive); in the experiment with DU-145 it was > 100 µM (inactive); in the experiment on 786-0 it was 35.1 µM (inactive); in the experiment with SF-295, 50 µM (inactive); with EKVX it was 51.2 µM (inactive); in the experiment with HOP-92, > 100 µM (inactive). Besides, the GI50 with SF-268 is > 100 µM (inactive); in the experiment with MDA-MB-435, 60.1 µM (inactive); in the experiment with A549, > 100 µM (inactive); in the experiment on UACC-257, 26.1 µM (inactive); in the experiment with MDA-N, 43 µM (inactive); with U-251, 41.6 µM (inactive). In addition, the GI50 with NCI-H226 was > 100 µM (inactive); with LOX IMVI, 95.3 µM (inactive).

Take `OC(c1ccccc1)c1c(-c2ccccc2)[nH]c(-c2ccccc2)c1C(O)c1ccccc1` (stereo not given): the GI50 in the experiment with NCI/ADR-RES was 2.69 µM (inactive); in the experiment with HL-60, 2.28 µM (inactive); in the experiment with HCT-15 it was 3.76 µM; in the experiment on IGROV-1 it was 3.18 µM (inactive); in the experiment with OVCAR-3 it was 2.5 µM (inactive); with HCC 2998, 7.24 µM (inactive). Moreover, the GI50 was 1.74 µM (inactive) in the experiment on COLO 205; 5.28 µM (inactive) in the experiment with DU-145; 4.38 µM (inactive) with 786-0; 3.75 µM (inactive) in the experiment on SF-295; 3.21 µM (inactive) in the experiment with EKVX; 2.19 µM (inactive) in the experiment with HOP-92. The GI50 in the experiment on SF-268 is 4.16 µM (inactive); with MDA-MB-435 it was 3.18 µM (inactive); with A549, 3.73 µM (inactive); in the experiment with UACC-257, 3.04 µM (inactive); in the experiment with MDA-N, 2.59 µM (inactive); in the experiment on U-251 it was 3.78 µM (inactive). For the same molecule, the GI50 with NCI-H226 was 2.4 µM (inactive); with LOX IMVI it was 2.19 µM (inactive).

As for `OCC(CN1CCCCC1)(CN1CCCCC1)CN1CCCCC1`, the GI50 with NCI/ADR-RES is > 100 µM (inactive); with HL-60 it was > 100 µM (inactive); with HCT-15 it was above 100 µM; with IGROV-1 it was > 100 µM (inactive); with OVCAR-3, > 100 µM (inactive); with HCC 2998 it was > 100 µM (inactive). Moreover, the GI50 in the experiment on COLO 205 is > 100 µM (inactive); in the experiment with DU-145 it was > 100 µM (inactive); with 786-0, > 100 µM (inactive); in the experiment with SF-295, > 10 µM (inactive); in the experiment on EKVX, > 100 µM (inactive); in the experiment with HOP-92 it was > 100 µM (inactive). Further, the GI50 in the experiment with SF-268, in the experiment on MDA-MB-435, in the experiment on A549, in the experiment with UACC-257, in the experiment with MDA-N and in the experiment with U-251 was > 100 µM (inactive) each time. Moreover, the GI50 in the experiment on NCI-H226 and in the experiment with LOX IMVI was > 100 µM (inactive) in each case.
